Experimental data from patent US6716588B2, “System for cell-based screening” (Cellomics, Inc., priority 1999, dated 2004).

Key:
[1] = system: PC-3 cells; experiment: Cell spreading assay, PC-3 cells; format: cell-based, human; details: for ability of cells to spread (percentage of cells with Cyto minus NucArea above threshold): PC-3 on type I collagen, 3 hours
Procedure: (§1) Compounds that interfere with metastasis of prostate carcinoma cells were screened as follows. PC3 human prostate carcinoma cells (ATCC # CRL 1435) were cultured in media with appropriate stimulants and passaged to collagen coated 96 well plates. Similar experiments were also conducted with MDA-MB231, a breast carcinoma cell line (ATCC # HTB-26), A549 human lung carcinoma cell line (ATCC # CCL 185), and primary HMVEC-d human skin microvessel endothelial cells (Clonetics Walkersville, Md.
(§2) Conditions in which cell spreading could be augmented or diminished were tested in various ways, including plating the cells on collagen coated (various concentrations) or collagen free substrates, varying the time of cell spreading prior to analysis, and plating cells in the presence of chemical modulators. After two hours, cells were fixed and stained with ALEXA™ 488 phalloidin (Molecular Probes) and Hoechst 33342 as per the protocol for cellular hypertrophy. The size of cells under these various conditions, as measured by cytoplasmic staining, was distinguished from background levels. The number of cells per field was determined by measuring the number of nuclei stained with the Hoechst DNA dye. The area per cell was found by dividing the cytoplasmic area (phalloidin image) by the cell number (Hoechst image).

[2] = system: A549 cells; experiment: Cell movement (motility) of A549 cells; format: cell-based, human; details: for inhibition of cell movement (motility): 10 μM; for stimulation of movement by matrix protein: A549 cells plated on matrix protein
Procedure: (§3) To illustrate how cell spreading is a unique functional event that can be distinguished from attachment and motility by drug effects, we performed the following experiments. A549 cancer cells were allowed to spread on a collagen I coated substrate for 3 hours, and then were fixed and stained with rhodamine phalloidin. The number of cells that spread beyond a selectable threshold area was measured as a function of increasing concentrations of cytochalasin D. While cells normally spread to a size much larger than the nucleus in this time interval, cytochalasin D maintained cells in a tight rounded morphology not much larger than the nucleus. The movement of A549 cells was measured at 18 hours after plating. At a concentration of 0.5 μM, cytochalasin D prevented spreading of 80% of cells but permitted movement of 70% of cells. Cytochalasin had no effect on adhesion to the substrate as measured by the number of cells that remain attached after a 3 hour incubation.
(§4) The spreading of cells is a function of the ligands and cell receptors that are employed, and plating cells on different immobilized ligands will selectively bind to matched cell surface receptors. A549 cells were plated on various matrix proteins and allowed to spread for 3 and for 5 hours. […] Thus ligand-dependent differences in the kinetics of cell spreading can be measured. In addition, strong differences in the activation of spreading were seen on different matrices. […] In contrast to spreading, cell motility presented a very different biological profile of these matrix proteins. […] In further experiments, cells were allowed to spread in the presence of various kinase inhibitors and the effect on cell spreading was determined.

[3] = system: A549 cells; experiment: Cell spreading assay, A549 cells; format: cell-based, human; details: for inhibition of cell spreading: 10 μM; for stimulation of spreading by matrix protein / completeness of cell spreading on matrix protein: A549 cells plated on matrix protein
Procedure: as §1, §2, §3, §4

[4] = system: L-929 cells; experiment: High-content screen of drug-induced apoptosis, L-929 cells; format: cell-based, mouse
Procedure: (§5) Cell preparation. The cells chosen for this study were mouse connective tissue fibroblasts (L-929; ATCC CCL-1) and a highly invasive glioblastoma cell line (SNB-19; ATCC CRL-2219) (Welch et al., In Vitro Cell. Dev. Biol. 31:610, 1995). The day before treatment with an apoptosis inducing drug, 3500 cells were placed into each well of a 96-well plate and incubated overnight at 37° C. in a humidified 5% CO2 atmosphere. The following day, the culture medium was removed from each well and replaced with fresh medium containing various concentrations of paclitaxel (0-50 μM) from a 20 mM stock made in DMSO. The maximal concentration of DMSO used in these experiments was 0.25%. The cells were then incubated for 26 h as above. At the end of the paclitaxel treatment period, each well received fresh medium containing 750 nM MitoTracker Red (Molecular Probes; Eugene, Oreg.) and 3 μg/ml Hoechst 33342 DNA-binding dye (Molecular Probes) and was incubated as above for 20 min. Each well on the plate was then washed with HBSS and fixed with 3.7% formaldehyde in HBSS for 15 min at room temperature. The formaldehyde was washed out with HBSS and the cells were permeabilized for 90 s with 0.5% (v/v) Triton X-100, washed with HBSS, incubated with 2 U ml^−1 Bodipy FL phallacidin (Molecular Probes) for 30 min, and washed with HBSS. The wells on the plate were then filled with 200 μl HBSS, sealed, and the plate stored at 4° C. if necessary. The fluorescence signals from plates stored this way were stable for at least two weeks after preparation. As in the nuclear translocation assay, fluorescence reagents can be designed to convert this assay into a live cell high-content screen.
Image acquisition and analysis on the ArrayScan System. The fluorescence intensity of intracellular MitoTracker Red, Hoechst 33342, and Bodipy FL phallacidin was measured with the cell screening system as described supra. Morphometric data from each pair of images obtained from each well was also obtained to detect each object in the image field (e.g., cells and nuclei), and to calculate its size, shape, and integrated intensity.
Calculations and output. A total of 50-250 cells were measured per image field. For each field of cells, the following calculations were performed: (1) The average nuclear area (μm^2) was calculated by dividing the total nuclear area in a field by the number of nuclei detected. (2) The average nuclear perimeter (μm) was calculated by dividing the sum of the perimeters of all nuclei in a field by the number of nuclei detected in that field. Highly convoluted apoptotic nuclei had the largest nuclear perimeter values. (3) The average nuclear brightness was calculated by dividing the integrated intensity of the entire field of nuclei by the number of nuclei in that field. An increase in nuclear brightness was correlated with increased DNA content. (4) The average cellular brightness was calculated by dividing the integrated intensity of an entire field of cells stained with MitoTracker dye by the number of nuclei in that field. Because the amount of MitoTracker dye that accumulates within the mitochondria is proportional to the mitochondrial potential, an increase in the average cell brightness is consistent with an increase in mitochondrial potential. (5) The average cellular brightness was also calculated by dividing the integrated intensity of an entire field of cells stained with Bodipy FL phallacidin dye by the number of nuclei in that field. […]

[5] = system: SNB-19 cells; experiment: High-content screen of drug-induced apoptosis, SNB-19 cells; format: cell-based
Procedure: as §5, with “Each well on the plate was then washed with HBSS and fixed with 3.7% formaldehyde in HBSS for 15 min at room temperature. The formaldehyde was washed out with HBSS and the cells were permeabilized for 90 s with 0.5% (v/v) Triton X-100, washed with HBSS, incubated with 2 U ml^−1 Bodipy FL phallacidin (Molecular Probes) for 30 min, and washed with HBSS. The wells on the plate were then filled with 200 μl HBSS, sealed, and the plate stored at 4° C. if necessary.” left out
Image acquisition and analysis on the ArrayScan System. The fluorescence intensity of intracellular MitoTracker Red, Hoechst 33342, and Bodipy FL phallacidin was measured with the cell screening system as described supra. […]
Calculations and output. A total of 50-250 cells were measured per image field. For each field of cells, the following calculations were performed: (1) The average nuclear area (μm^2) was calculated by dividing the total nuclear area in a field by the number of nuclei detected. (2) The average nuclear perimeter (μm) was calculated by dividing the sum of the perimeters of all nuclei in a field by the number of nuclei detected in that field. […] (3) The average nuclear brightness was calculated by dividing the integrated intensity of the entire field of nuclei by the number of nuclei in that field. […]

[6] = system: NF-KB transcription factor; experiment: Cytoplasm to nucleus translocation screen of NF-KB (NucCyt Difference); format: cell-based, human; details: titrated in the presence of IL-1α
Procedure: The distribution of the transcription factor is determined by labeling the nuclei with a DNA specific fluorophore like […] and the transcription factor with a specific fluorescent antibody. After autofocusing on the Hoechst labeled nuclei, an image of the nuclei is acquired in the cell-based screening system and used to create a mask by one of several optional thresholding methods, as described supra. The morphological descriptors of the regions defined by the mask are compared with the user defined parameters and valid nuclear masks are identified and used with the following method to extract transcription factor distributions. Each valid nuclear mask is eroded to define a slightly smaller nuclear region. The original nuclear mask is then dilated in two steps to define a ring shaped region around the nucleus, which represents a cytoplasmic region. The average antibody fluorescence in each of these two regions is determined, and the difference between these averages is defined as the NucCyt Difference. […] Using these two sampling regions, data on nuclear translocation can be automatically analyzed by the cell-based screening system on a cell by cell basis. […]

Compound: C[S+](C)[O-] [DMSO]
- ability of cells to spread (percentage of cells with Cyto minus NucArea above threshold) ([1]; DMSO 2.5%): significantly reduced
- ability of cells to spread (percentage of cells with Cyto minus NucArea above threshold) ([1]; DMSO 5%): significantly reduced
- ability of cells to spread (percentage of cells with Cyto minus NucArea above threshold) ([1]; DMSO at or below 1%): no effect

Compound: O=C(O)CN(CCN(CC(=O)O)CC(=O)O)CC(=O)O [EDTA]
- cell adherence ([1]; PC-3 cells, 50 mM): inhibited cell adherence
- cell spreading ([1]; PC-3 cells, 50 mM): inhibited cell spreading

Compound: CN([C@@H](Cc1ccc(OS(=O)(=O)c2cccc3cnccc23)cc1)C(=O)N1CCN(c2ccccc2)CC1)S(=O)(=O)c1cccc2cnccc12 [KN-62]
- inhibition of cell movement (motility) [2]: ineffective
- inhibition of cell spreading [3]: ineffective

Compound: C=C1[C@@H](C)[C@H]2[C@H](Cc3ccccc3)NC(=O)[C@]23[C@H](OC(C)=O)/C=C/[C@@](C)(O)C(=O)[C@@H](C)C/C=C/[C@H]3[C@@H]1O [cytochalasin D]
- binding of cells to the substrate ([1]; cell line not given): did not affect binding of cells to the substrate
- spreading on various substrates ([1]; cell line not given): prevented their spreading
- cells permitted to move ([2]; 0.5 μM, movement measured at 18 hours after plating): 70%
- cells prevented from spreading ([3]; 0.5 μM, collagen I coated substrate, 3 hours): 80%
- adhesion to the substrate (number of cells that remain attached) ([3]; 3 hour incubation): no effect

Compound: O=c1c(-c2ccc(O)cc2)coc2cc(O)cc(O)c12 [genistein]
- inhibition of cell movement (motility) [2]: ineffective
- inhibition of cell spreading [3]: ineffective

Compound: CC(=O)O[C@H]1C(=O)[C@@]2(C)[C@H]([C@H](OC(=O)c3ccccc3)[C@]3(O)C[C@H](OC(=O)[C@H](O)[C@@H](NC(=O)c4ccccc4)c4ccccc4)C(C)=C1C3(C)C)[C@]1(OC(C)=O)CO[C@@H]1C[C@@H]2O [paclitaxel]
- concentration of maximal response in many parameters ([4]; L-929 cells, 26 h): 5 µM
- mitochondrial potential ([4]; L-929 cells, any of the concentrations tested (0-50 μM)): did not show a sharp decrease
- sensitivity to low concentrations compared with SNB-19 cells ([4]; L-929 cells, each parameter measured): less sensitive
- nuclear morphology ([4]; L-929 cells, increasing amounts of paclitaxel): caused nuclei to enlarge and fragment
- dose of maximal response, L-929 relative to SNB-19 cells ([4]; L-929 vs SNB-19): 500 fold
- mitochondrial potential ([5]; 10 nM paclitaxel, 26 h): minimal
- concentration at which area, brightness, fragmentation of the nucleus and actin polymerization reached a maximum value ([5]; 26 h): 10 nM
- all the parameters measured at increasing concentrations ([5]; >10 nM paclitaxel): approached control levels

Compound: Calphostin C
- inhibition of cell movement (motility) [2]: equally effective at inhibiting cell spreading and movement
- inhibition of cell spreading [3]: equally effective at inhibiting cell spreading and movement

Compound: IL-1RA: an antagonist to the receptor for IL-1
- inhibition of translocation induced by IL-1α [6]: progressively inhibiting the translocation

Compound: collagen I: matrix protein used as substrate coating
- time at which cell spreading was achieved ([1]; PC-3 cells on a defined collagen I matrix): 2 to 3 h
- stimulation of movement by matrix protein [2]: maximally stimulated both movement and spreading
- stimulation of spreading by matrix protein [3]: maximally stimulated both movement and spreading
- completeness of cell spreading on matrix protein ([3]; 3 hours): complete by 3 hours

Compound: fibronectin
- stimulation of movement by matrix protein [2]: minimally stimulated movement
- stimulation of spreading by matrix protein [3]: maximally stimulated spreading
- completeness of cell spreading on matrix protein ([3]; 3 hours): incomplete

Compound: laminin
- stimulation of movement by matrix protein [2]: maximally stimulated movement
- stimulation of spreading by matrix protein [3]: minimally stimulating spreading
- completeness of cell spreading on matrix protein ([3]; 3 hours): complete by 3 hours
